Assay [1] in a line: (§1) CDK9/CycT1 High ATP Kinase Assay: Method 1b: Recombinant full-length His-tagged human CDK9 and CycT1, expressed in insect cells and purified by Ni-NTA affinity chromatography, were purchase from Invitrogen (Cat. No PV4131). As substrate for the kinase reaction biotinylated peptide biotin-Ttds-[…] (C-terminus in amid form) was used which can be purchased e.g. form the company JERINI peptide technologies (Berlin, Germany).For the assay 50 nl of a 100 fold concentrated solution of the test compound in DMSO was pipetted into a black low volume 384 well microtiter plate (Greiner Bio-One, Frickenhausen, Germany), 2 ul of a solution of CDK9/CycT1 in aqueous assay buffer [50 mM Tris/HCl pH 8.0, 10 mM MgCl2, 1.0 mM dithiothreitol, 0.1 mM sodium ortho-vanadate, 0.01% (v/v) Nonidet-P40 (Sigma)] were added and the mixture was incubated for 15 min at 22° C. to allow pre-binding of the test compounds to the enzyme before the start of the kinase reaction. […] The concentration of CDK9/CycT1 was adjusted depending of the activity of the enzyme lot and was chosen appropriate to have the assay in the linear range, typical concentrations were in the range of 0.5 ug/ml. […].

Assay [2] is described as follows: CDK2/CycE Kinase Assay: Method 2: Recombinant fusion proteins of GST and human CDK2 and of GST and human CycE, expressed in insect cells (Sf9) and purified by Glutathion-Sepharose affinity chromatography, were purchased from ProQinase GmbH (Freiburg, Germany). As substrate for the kinase reaction biotinylated peptide biotin-Ttds-[…] (C-terminus in amid form) was used which can be purchased e.g. form the company JERINI Peptide Technologies (Berlin, Germany).For the assay 50 nl of a 100 fold concentrated solution of the test compound in DMSO was pipetted into a black low volume 384 well microtiter plate (Greiner Bio-One, Frickenhausen, Germany), 2 ul of a solution of CDK2/CycE in aqueous assay buffer [50 mM Tris/HCl pH 8.0, 10 mM MgCl2, 1.0 mM dithiothreitol, 0.1 mM sodium ortho-vanadate, 0.01% (v/v) Nonidet-P40 (Sigma)] were added and the mixture was incubated for 15 min at 22° C. to allow pre-binding of the test compounds to the enzyme before the start of the kinase reaction. […] The concentration of CDK2/CycE was adjusted depending of the activity of the enzyme lot and was chosen appropriate to have the assay in the linear range, typical concentrations were in the range of 130 ng/ml. […].

Assay [3] is described as follows: as §1, with “CDK9/CycT1” for “CDK9/CycT1 High ATP”, “Method 1a:” for “Method 1b:”, “were purchased” for “were purchase”, “JERINI Peptide Technologies” for “JERINI peptide technologies”, “of 1” for “of 0.5”.

For orientation: IC50 means the point on the concentration scale where inhibition reaches its midpoint.

Regarding `C[S@@](=N)(=O)Cc1cc(Nc2ncc(F)c(-c3ccc(F)cc3F)n2)cc(C(F)(F)F)c1`, the results for the IC50 in assay [1], in assay [2] and in assay [3] were 235 nM, 780 nM and 11 nM, respectively.
For `C[S@](=N)(=O)Cc1cc(Nc2ncc(F)c(-c3ccc(F)cc3F)n2)cc(C(F)(F)F)c1` the same measures were 231 nM, 630 nM and 13 nM.

(Values after ChEMBL document CHEMBL5725264, “4-(ortho)-fluorophenyl-5-fluoropyrimidin-2-yl amines containing a sulfoximine group” (2016).)
